{"source": "patent US20140030368A1", "about": "“COMPOSITION FOR PREVENTING OR TREATING A RESPIRATORY DISEASE CONTAINING A MIXED HERBAL EXTRACT OF CNIDIUM OFFICINALE ROOT AND POLYGONI CUSPIDATI ROOT” (WHANIN PHARMACEUTICAL CO., LTD., priority 2011, published 2014)", "assay_type_in_all_cases": "in vivo, mice", "key": {"[1]": {"test_system": "inflammatory cells in pulmonary bronchoalveolar lavage", "test": "Inflammatory cells in pulmonary bronchoalveolar lavage, LPS-induced asthma/COPD model", "conditions": "ovalbumin + LPS model", "method": "Whether the extract of the present invention has the effect of inhibiting pulmonary bronchial inflammation in an LPS (lipopolysaccharide)-induced asthma/chronic obstructive pulmonary disease model was examined (see You-Sun Kim et al., J. Immunol., 2010, 185, 5648-5655; Jun-Pyo Choi et al., Allergy, 2010, 65, 1322-1330).\nSpecifically, a mixture of 75 μg of ovalbumin and 10 μg of LPS (Sigma) was intranasally administered a total of four times (days 0, 1, 2 and 7) into C57BL/6 male mice (6 weeks old; provided from the Animal Laboratory in Biotech Center, Pohang University of Science & Technology) to sensitize the mice. At 14, 15, 21 and 22 days from the first sensitization date, 50 μg of ovalbumin in PBS was challenged into the nasal cavity to induce asthma and chronic obstructive pulmonary disease. In addition, at 14, 15, 21 and 22 days at which challenge was performed, each of 1.0% CMC, 100, 200 and 400 mg/10 ml/kg of the extract of Example 2, 1 mg/10 ml/Kg of the comparative drug dexamethason and 10 mg/10 ml/kg of the comparative drug montelukast was orally administered twice a day. At 48 hours after the final challenge, the mice were anesthetized by intraperitoneal administration of ketamine and xylazine, and the organ of the mice was exposed and a catheter was inserted therein. Then, the bronchoalveoli were laved with each of 0.8 and 0.7 ml of sterile phosphate buffered saline to obtain a bronchoalveolar lavage. The bronchoalveolar lavage was centrifuged at 4° C. at 1000 rpm for 5 minutes, and the supernatant was removed. 2 ml of 10% FBS-IMDM (fetal bovine serum—Iscove's Modified Dulbecco's Medium) was added to the cells which were then counted. Then, the cells were cytospun, plated on a slide, and Diff-Quick stained. At least 300 inflammatory cells were observed by the staining method and classified into eosinophils, macrophages, neutrophils and lymphocytes, and the cell numbers of the groups treated with dexamethason, montelukast and the extract of Example 2 were compared with the ratios of inflammatory cells in the pulmonary bronchoalveolar lavages of the negative control group and the positive control group, thereby evaluating the inhibitory effects of the test materials against airway inflammation."}, "[2]": {"test_system": "anti-ovalbumin-specific IgG1 antibody", "test": "Antigen-specific antibody in serum, LPS-induced asthma/COPD model (ELISA)", "method": "In order to examine whether the extract of the present invention has the ability to produce an antigen-specific antibody in an LPS-induced asthma/chronic obstructive pulmonary disease model, the LPS-induced asthma/chronic obstructive pulmonary disease model was prepared by treatment with each of the extract of Example 2 and a comparative drug in the same manner as described in Test Example 7-1. At 48 hours after the final challenge, the mice were anesthetized by intraperitoneal injection with ketamine and xylazine. Then, blood was collected from the heart using a 1 ml syringe, and serum was separated from the blood by centrifugation. Then, an anti-ovalbumin-specific IgG1 antibody in the serum was measured according to an ELISA assay, and the results of the measurement are shown in Table 11 below."}, "IFN-γ (interferon-γ)": {"test_system": "IFN-γ (interferon-γ)", "test": "T cell-derived cytokine from lung tissue, LPS-induced asthma/COPD model (ELISA)", "conditions": "ovalbumin + LPS model", "method": "(§1) In order to examine whether the extract of the present invention has the effect of inhibiting T cell-derived cytokine isolated from the lung tissue of an LPS-derived asthma/chronic obstructive pulmonary disease model, the following test was performed.\n(§2) Specifically, the LPS-induced asthma/chronic obstructive pulmonary disease model was prepared by treatment with each of the extract of Example 2 and a comparative drug in the same manner as described in Test Example 7-1. At 6 hours after the final challenge, the mice were anesthetized by intraperitoneal injection with ketamine and xylazine, and lung tissue was obtained from the mice. The lung tissue was cut finely with a blade and incubated with 5 ml of 1× Trypsin-EDTA and 1000 units of chollagenase at 37° C. for 10 minutes. Then, the tissue was passed through a 100 μm mesh to collect only immune cells. To stimulate T cells among the collected cells, 1×10^5 cells and anti-CD28 (1 μg/ml) were added to a 96-well plate coated with anti-CD3 (1 μg/ml) and were incubated in an incubator at 37° C. for 12 hours. Next, the supernatant was collected, and the amounts of the cytokines IL-17 (interleukin 17) and IFN-γ (interferon-γ) in the supernatant were measured using an ELISA (enzyme-linked immunosorbent assay)."}, "IL-17 (interleukin 17)": {"test_system": "IL-17 (interleukin 17)", "test": "T cell-derived cytokine from lung tissue, LPS-induced asthma/COPD model (ELISA)", "conditions": "ovalbumin + LPS model", "method": "as §1, §2"}, "[3]": {"test_system": "inflammatory cells in pulmonary bronchoalveolar lavage", "test": "Inflammatory cells in pulmonary bronchoalveolar lavage, E. coli-EV-induced asthma/COPD model", "method": "Whether the extract of the present invention has the effect of inhibiting pulmonary bronchial inflammation in an E. coli-EV-induced asthma/chronic obstructive pulmonary disease model was evaluated.\nSpecifically, a mixture of 10 ng of E. coli-EV and PBS was intranasally administered a total of four times (days 0, 1, 2 and 7) into C57BL/6 male mice (6 weeks old; provided from the Animal Laboratory in Biotech Center, Pohang University of Science & Technology) to sensitize the mice. At 14, 15, 21 and 22 days from the first sensitization date, 10 ng of E. coli-EV was challenged into the nasal cavity to induce asthma and chronic obstructive pulmonary disease. In addition, at 14, 15, 21 and 22 days at which the challenge was performed, each of 1.0% CMC, 100, 200 and 400 mg/10 ml/kg of the extract of Example 2, 1 mg/10 ml/kg of the comparative drug dexamethason and 10 mg/10 ml/kg of the comparative drug montelukast was orally administered twice a day. At 48 hours after the final challenge, the mice were anesthetized by intraperitoneal administration of ketamine and xylazine, and the organ of the mice was exposed and a catheter was inserted therein. Then, the bronchoalveoli were laved with each of 0.8 and 0.7 ml of sterile phosphate buffered saline to obtain a bronchoalveolar lavage The bronchoalveolar lavage was centrifuged at 4° C. at 1000 rpm for 5 minutes, and the supernatant was removed. 2 ml of 10% FBS-IMDM (fetal bovine serum—Iscove's Modified Dulbecco's Medium) was added to the cells which were then counted. Then, the cells were cytospun, plated on a slide, and Diff-Quick stained. At least 300 inflammatory cells were observed by the staining method and classified into eosinophils, macrophages, neutrophils and lymphocytes, and the cell numbers of the groups treated with dexamethason, montelukast and the extract of Example 2 were compared with the ratios of inflammatory cells in the pulmonary bronchoalveolar lavages of the negative control group and the positive control group, thereby evaluating the inhibitory effects of the test materials against airway inflammation."}, "[4]": {"test_system": "MCP-1 (monocyte chemoattractant protein-1)", "test": "Inflammatory mediator in bronchoalveolar lavage, E. coli-EV-induced model (ELISA)", "method": "(§3) The expression patterns of the inflammatory mediators MCP-1 (monocyte chemoattractant protein-1) and MIP-1α (macrophage inflammatory protein-1α) in the bronchoalveolar lavage obtained in Test Example 8-1 were measured using an ELISA assay, and the results of the measurement are shown in Table 14 below."}, "[5]": {"test_system": "MIP-1α (macrophage inflammatory protein-1α)", "test": "Inflammatory mediator in bronchoalveolar lavage, E. coli-EV-induced model (ELISA)", "method": "as §3"}}, "data": [{"smiles": "C[C@@H]1C[C@H]2[C@@H]3CCC4=CC(=O)C=C[C@]4(C)[C@@]3(F)[C@@H](O)C[C@]2(C)[C@@]1(O)C(=O)CO", "note": "[Dexamethason, dexamethason]", "values": [{"measurement": "Inhibition rate(%) Eosinophils", "setting": "[1]; 1 mg/kg b.i.d.", "value": 51.1, "unit": "%"}, {"measurement": "Inhibition rate(%) Macrophages", "setting": "[1]; 1 mg/kg b.i.d.", "value": 27.3, "unit": "%"}, {"measurement": "Inhibition rate(%) Total cells", "setting": "[1]; 1 mg/kg b.i.d.", "value": 40.4, "unit": "%"}, {"measurement": "IGg1 in serum", "setting": "[2]; 1 mg/kg b.i.d.", "value": 28.94}, {"measurement": "IGg1 in serum, Inhibition rate (%)", "setting": "[2]; 1 mg/kg b.i.d.", "value": 57.35, "unit": "%"}, {"measurement": "IFN-γ inhibition rate (%)", "setting": "IFN-γ (interferon-γ); 1 mg/kg b.i.d.", "value": 15.19, "unit": "%"}, {"measurement": "IL-17 inhibition rate (%)", "setting": "IL-17 (interleukin 17); 1 mg/kg b.i.d.", "value": 23.12, "unit": "%"}, {"measurement": "Inhibition rate(%) Eosinophils", "setting": "[3]; 1 mg/kg b.i.d.", "value": 1.1, "unit": "%"}, {"measurement": "Inhibition rate(%) Macrophages", "setting": "[3]; 1 mg/kg b.i.d.", "value": 24.7, "unit": "%"}, {"measurement": "Inhibition rate(%) Total cells", "setting": "[3]; 1 mg/kg b.i.d.", "value": 9.2, "unit": "%"}, {"measurement": "Inhibition rate(%) MCP-1", "setting": "[4]; 1 mg/kg b.i.d.", "value": 1.2, "unit": "%"}, {"measurement": "Inhibition rate(%) MIP-1α", "setting": "[5]; 1 mg/kg b.i.d.", "value": 8.3, "unit": "%"}]}, {"smiles": "CC(C)(O)c1ccccc1CC[C@@H](SCC1(CC(=O)O)CC1)c1cccc(/C=C/c2ccc3ccc(Cl)cc3n2)c1", "note": "[montelukast]", "values": [{"measurement": "Inhibition rate(%) Eosinophils", "setting": "[1]; 10 mg/kg b.i.d.", "value": 13.3, "unit": "%"}, {"measurement": "Inhibition rate(%) Macrophages", "setting": "[1]; 10 mg/kg b.i.d.", "value": 8.2, "unit": "%"}, {"measurement": "Inhibition rate(%) Total cells", "setting": "[1]; 10 mg/kg b.i.d.", "value": 10.6, "unit": "%"}, {"measurement": "IGg1 in serum", "setting": "[2]; 10 mg/kg b.i.d.", "value": 44.84}, {"measurement": "IGg1 in serum, Inhibition rate (%)", "setting": "[2]; 10 mg/kg b.i.d.", "value": 33.91, "unit": "%"}, {"measurement": "IFN-γ inhibition rate (%)", "setting": "IFN-γ (interferon-γ); 10 mg/kg b.i.d.", "value": 14.50, "unit": "%"}, {"measurement": "IL-17 inhibition rate (%)", "setting": "IL-17 (interleukin 17); 10 mg/kg b.i.d.", "value": 68.42, "unit": "%"}, {"measurement": "Inhibition rate(%) Eosinophils", "setting": "[3]; 10 mg/kg b.i.d.", "value": 15.4, "unit": "%"}, {"measurement": "Inhibition rate(%) Macrophages", "setting": "[3]; 10 mg/kg b.i.d.", "value": 1.3, "unit": "%"}, {"measurement": "Inhibition rate(%) Total cells", "setting": "[3]; 10 mg/kg b.i.d.", "value": 1.2, "unit": "%"}, {"measurement": "Inhibition rate(%) MCP-1", "setting": "[4]; 10 mg/kg b.i.d.", "value": 11.5, "unit": "%"}, {"measurement": "Inhibition rate(%) MIP-1α", "setting": "[5]; 10 mg/kg b.i.d.", "value": 4.2, "unit": "%"}]}]}
